Measured values published in patent US20080207529A1, “Isolated Dipeptides with Ace Inhibitor Effect” (CHR. HANSEN A/S, priority 2005, published 2008).

Biological target: angiotensin-converting enzyme (ACE) (Homo sapiens, UniProt P12821)
Assay: BioSelact on-line ACE inhibitor bioassay (Kiadis)
Type: biochemical
Conditions: determined by the BioSelect method of Kiadis of aqueous extracts of the fat+cell fraction
Description: Supernatants of whole fermentations, whey liquids, chloroform and aqueous extracts from fat/cell fractions were all pH adjusted before analysis. First the solutions were adjusted to pH 3. After centrifugation the precipitate was removed. During a second step the pH was adjusted to 7.5 (pH of bioassay). Again precipitate was removed from the solution after centrifugation. The remaining supernatants were used for BioSelact analysis.
250 mg of fat/cell preparation was extracted with 250 μl MilliQ. The solution was positioned on a flat shaker for 2 hours at room temperature. The fat/cell fraction was removed after extraction by centrifugation.
During the first step of the BioSelact analysis, the aqueous solutions were analyzed by applying a general chromatographic gradient: 5-95% MeOH/0.05% TFA in 75 min. For these general analyses a Phenomenex, LUNA C18(2), 5 μm, 2*250 mm analytical column was used. The chromatographic separation was carried out at a flow rate of 0.2 ml/min at ambient temperature. The injection volume was 250 μl. The organic modifier concentration in the Liquid Chromatography (LC) effluent was decreased to bioassay compatible levels by performing continuous dilution using the BioGradient composition from Kiadis. […]
After completing the first general chromatographic ‘sweep’, the presence of bioactivity in each sample was carefully assessed by the Kiadis ACE inhibitor assay. […]

angiotensin-converting enzyme (ACE), sequence (P12821 30-1306, species assumed): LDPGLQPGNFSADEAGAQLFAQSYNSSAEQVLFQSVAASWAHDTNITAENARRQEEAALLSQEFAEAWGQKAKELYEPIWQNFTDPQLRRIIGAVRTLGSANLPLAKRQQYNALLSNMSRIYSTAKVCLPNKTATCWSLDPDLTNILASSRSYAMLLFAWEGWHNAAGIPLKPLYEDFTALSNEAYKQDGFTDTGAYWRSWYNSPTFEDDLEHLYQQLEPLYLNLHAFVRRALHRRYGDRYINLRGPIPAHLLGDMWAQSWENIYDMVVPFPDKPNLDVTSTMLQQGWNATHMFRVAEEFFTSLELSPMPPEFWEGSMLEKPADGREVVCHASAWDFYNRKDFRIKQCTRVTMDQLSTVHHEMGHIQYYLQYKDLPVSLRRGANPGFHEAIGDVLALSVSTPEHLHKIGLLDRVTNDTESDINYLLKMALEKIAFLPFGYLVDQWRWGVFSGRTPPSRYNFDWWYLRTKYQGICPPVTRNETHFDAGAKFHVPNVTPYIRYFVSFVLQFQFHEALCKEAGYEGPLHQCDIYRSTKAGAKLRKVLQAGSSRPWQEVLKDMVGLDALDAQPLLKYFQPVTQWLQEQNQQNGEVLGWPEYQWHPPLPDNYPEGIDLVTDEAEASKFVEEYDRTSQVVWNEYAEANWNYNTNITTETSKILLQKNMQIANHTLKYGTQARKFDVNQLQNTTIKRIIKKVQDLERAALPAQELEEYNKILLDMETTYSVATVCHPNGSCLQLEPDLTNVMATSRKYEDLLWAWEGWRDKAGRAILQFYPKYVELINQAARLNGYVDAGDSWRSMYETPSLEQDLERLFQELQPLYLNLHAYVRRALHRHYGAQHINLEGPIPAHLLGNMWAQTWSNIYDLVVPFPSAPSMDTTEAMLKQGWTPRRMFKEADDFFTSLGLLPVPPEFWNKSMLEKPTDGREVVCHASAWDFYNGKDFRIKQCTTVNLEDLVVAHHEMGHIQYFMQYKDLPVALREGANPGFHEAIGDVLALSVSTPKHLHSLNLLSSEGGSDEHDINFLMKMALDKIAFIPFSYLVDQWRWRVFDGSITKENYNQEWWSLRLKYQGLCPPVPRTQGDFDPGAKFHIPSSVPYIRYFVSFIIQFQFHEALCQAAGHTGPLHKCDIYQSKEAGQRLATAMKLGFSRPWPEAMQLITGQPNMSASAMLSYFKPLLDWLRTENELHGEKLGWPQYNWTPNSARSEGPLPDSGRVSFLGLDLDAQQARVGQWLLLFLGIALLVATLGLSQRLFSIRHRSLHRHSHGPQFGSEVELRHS

Relative inhibition (relative ACE inhibitory activity): 0.7%
Substance: Ile-Pro-Pro [IPP]
